Laboratory results as given in PMC8298633, “Cannabis constituents interact at the drug efflux pump BCRP to markedly increase plasma cannabidiolic acid concentrations” (Scientific Reports, 2021).
Where “and” joins values, the source holds several entries; their conditions need not be identical. Equal values may be shown once.

Experiments:
[1] = Pharmacokinetic study: plasma cannabinoids after single oral gavage of full-spectrum cannabis extract or individual cannabinoid; conditions: for AUC / Cmax / half-life / tmax: both, mouse, plasma, po; for half-life: t1/2, mouse plasma; for Detection in plasma following oral administration of the full-spectrum extract: single oral dose of extract
Experimental: Drugs were administered by oral gavage in a volume of 5 mL/kg. Wildtype male and female mice (postnatal day 21–28, P21-28) received a single oral gavage of either the full-spectrum cannabis extract or an individual cannabinoid. Cannabinoid doses within the full-spectrum extract or as an individual cannabinoid were as follows in mg/kg: CBDA and Δ^9-THCA, 50; CBD, 25; Δ^9-THC, 15; CBC, 9; CBDVA and CBGA, 7; CBN, 2.5; CBG, 1.5; CBDV and Δ^9-THCV, < 1 (Fig. 1a). At selected time points (15–240 min), mice were anesthetized with isoflurane and whole blood was collected by cardiac puncture. Plasma was isolated by centrifugation (9000 g for 10 min, 4 °C) and stored at − 80 °C until assayed.
Concentrations of cannabinoids in plasma samples were quantified as described previously, [24], [58]. […] The organic layer was isolated by centrifugation (4000 g for 10 min) and evaporated to dryness with N2. Samples were reconstituted in acetonitrile and 0.1% formic acid in water (1:3.3, v/v) for supported-liquid extraction (SLE) with methyl tert-butyl ether (MTBE) using Biotage Isolute SLE+ columns (Uppsala, SWE). […] Quantification of cannabinoids was achieved by comparing samples to standards prepared with known amounts of drug.
Plasma concentrations at each time point were averaged and pharmacokinetic parameters were calculated by noncompartmental analysis. Elimination rate constants were determined by linear regression of the terminal component of the concentration–time curve using GraphPad Prism 8.2 (La Jolla, USA). The log-linear trapezoidal method was used to calculated total drug exposure (area under concentration–time curve) using equations described previously.

[2] = Bidirectional transwell transport assay, wildtype MDCK cell monolayers; conditions: dog, MDCK
Experimental: (§1) We first aimed to determine whether the cannabinoids found in the full-spectrum cannabis extract were substrates of P-glycoprotein and BCRP by using MDCK cells expressing human P-glycoprotein or BCRP in vitro. Transwell assays were conducted to assess bidirectional transport of the cannabinoids detected in plasma following administration of the full-spectrum cannabis extract (CBD, CBDA, CBDVA, CBGA, Δ^9-THC and Δ^9-THCA), including the respective neutral compounds (CBDV and CBG) across wildtype, BCRP and P-glycoprotein MDCK cell monolayers. […] BCRP and P-glycoprotein preferentially transport substrates in the B > A direction.
(§2) Media in the donor chamber was then replaced with that containing 10 µM of an individual cannabinoid in the presence of either vehicle or inhibitor and returned to 37 °C. Aliquots (25 or 50 µL) were removed from the accepter chamber at 60, 120, 180 and 240 min.
(§3) Cannabinoids were analyzed as described above.

wildtype MDCK cells = assay: as above; conditions: wildtype MDCK cells, 10 µM cannabinoid, apical to basolateral
Experimental: as §1, §2, §3

BCRP [3] = molecular target: T1, BCRP (Homo sapiens, UniProt Q9UNQ0); assay: Bidirectional transwell substrate assay, MDCK cells expressing BCRP (with or without elacridar); conditions: for P (A > B): apical to basolateral; for P (B > A): basolateral to apical; for BCRP substrate status: human BCRP MDCK cells vs wildtype, with elacridar control; for efflux ratio at 240 min, 10 µM: human, r (transport efflux ratio)
T1 sequence (Q9UNQ0 1-655): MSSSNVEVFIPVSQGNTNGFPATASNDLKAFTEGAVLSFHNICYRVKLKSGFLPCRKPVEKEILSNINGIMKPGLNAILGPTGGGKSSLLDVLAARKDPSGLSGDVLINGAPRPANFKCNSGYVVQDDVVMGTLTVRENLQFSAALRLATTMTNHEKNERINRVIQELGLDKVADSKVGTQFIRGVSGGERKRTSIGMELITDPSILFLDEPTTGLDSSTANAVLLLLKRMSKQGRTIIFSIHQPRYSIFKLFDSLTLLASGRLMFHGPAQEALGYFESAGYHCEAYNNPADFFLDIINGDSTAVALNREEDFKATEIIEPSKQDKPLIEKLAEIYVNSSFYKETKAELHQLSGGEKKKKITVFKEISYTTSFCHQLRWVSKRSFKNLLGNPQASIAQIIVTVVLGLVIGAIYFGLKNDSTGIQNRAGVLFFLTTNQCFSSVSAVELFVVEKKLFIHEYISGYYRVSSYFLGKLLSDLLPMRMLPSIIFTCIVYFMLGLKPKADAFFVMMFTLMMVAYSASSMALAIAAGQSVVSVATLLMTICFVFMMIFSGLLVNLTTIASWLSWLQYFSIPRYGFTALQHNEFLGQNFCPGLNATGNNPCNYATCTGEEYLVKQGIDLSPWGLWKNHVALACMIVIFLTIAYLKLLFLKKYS
Experimental: as §1, §2, §3

P-glycoprotein = P-glycoprotein (Homo sapiens, UniProt P08183); assay: Bidirectional transwell substrate assay, MDCK cells expressing P-glycoprotein; conditions: for P (A > B): apical to basolateral; for P (B > A): basolateral to apical; for P-glycoprotein substrate status: human P-glycoprotein MDCK cells vs wildtype
P-glycoprotein, sequence (P08183 whole entry): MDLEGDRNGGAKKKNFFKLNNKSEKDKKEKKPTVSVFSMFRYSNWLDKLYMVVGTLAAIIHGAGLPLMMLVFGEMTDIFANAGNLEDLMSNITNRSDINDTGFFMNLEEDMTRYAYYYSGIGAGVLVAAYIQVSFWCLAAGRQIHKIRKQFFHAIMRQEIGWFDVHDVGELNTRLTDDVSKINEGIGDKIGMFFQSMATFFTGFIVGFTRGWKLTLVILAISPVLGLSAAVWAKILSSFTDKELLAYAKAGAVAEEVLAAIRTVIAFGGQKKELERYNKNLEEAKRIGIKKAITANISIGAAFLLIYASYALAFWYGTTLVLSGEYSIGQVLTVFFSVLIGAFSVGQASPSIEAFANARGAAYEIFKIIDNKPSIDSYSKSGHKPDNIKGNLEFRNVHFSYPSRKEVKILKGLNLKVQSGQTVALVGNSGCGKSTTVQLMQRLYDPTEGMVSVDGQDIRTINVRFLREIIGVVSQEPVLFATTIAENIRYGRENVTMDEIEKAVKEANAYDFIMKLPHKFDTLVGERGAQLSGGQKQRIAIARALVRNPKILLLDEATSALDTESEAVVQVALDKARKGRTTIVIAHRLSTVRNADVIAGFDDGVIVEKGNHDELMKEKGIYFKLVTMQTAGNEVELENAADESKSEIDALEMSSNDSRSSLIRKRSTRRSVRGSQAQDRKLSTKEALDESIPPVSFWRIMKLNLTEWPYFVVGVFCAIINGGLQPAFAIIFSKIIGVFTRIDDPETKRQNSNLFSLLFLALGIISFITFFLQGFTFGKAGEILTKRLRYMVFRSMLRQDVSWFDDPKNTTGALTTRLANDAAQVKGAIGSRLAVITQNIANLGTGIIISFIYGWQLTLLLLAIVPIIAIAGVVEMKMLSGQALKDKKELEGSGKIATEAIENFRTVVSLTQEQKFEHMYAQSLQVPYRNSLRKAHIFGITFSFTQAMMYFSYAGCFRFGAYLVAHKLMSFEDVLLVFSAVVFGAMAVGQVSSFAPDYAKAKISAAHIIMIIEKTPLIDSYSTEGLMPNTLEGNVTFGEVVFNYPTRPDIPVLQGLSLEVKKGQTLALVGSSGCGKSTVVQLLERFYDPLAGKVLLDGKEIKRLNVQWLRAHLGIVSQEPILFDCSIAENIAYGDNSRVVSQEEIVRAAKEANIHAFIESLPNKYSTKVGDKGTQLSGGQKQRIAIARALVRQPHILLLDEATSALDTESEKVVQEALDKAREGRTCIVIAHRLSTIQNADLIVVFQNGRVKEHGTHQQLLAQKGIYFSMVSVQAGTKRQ
Experimental: as §1, §2, §3

[4] = set-up: method as in PMID 33155722; conditions: healthy individuals, oral cannabis decoction and oil containing 3–6 times the amount of CBDA compared to CBD; cited from earlier work
BCRP [5] = molecular target: T1, BCRP; assay: Inhibition of BCRP-mediated transport of CBDA by cannabinoids (transwell, BCRP MDCK cells); conditions: 10 µM
Experimental: Cannabinoids were tested at 10 µM. […] Data are expressed as means ± SEM, with n = 4 per time point. […] Schematic created using BioRender.com.
as §3

Bcrp1 = conditions: mouse Bcrp1; cited from earlier work
BCRP [6] = molecular target: T1, BCRP; assay: Inhibition of BCRP-mediated transport of prazosin (transwell, BCRP MDCK cells); conditions: 10 µM, compared to vehicle
[7] = mouse plasma, oral, administered as individual cannabinoid, doses mg/kg: CBD 25, CBDA 50, CBDVA 7, THC 15, THCA 50
[8] = mouse plasma, oral, administered in full-spectrum extract, doses mg/kg: CBD 25, CBDA 50, CBDVA 7, CBGA 7, THC 15, THCA 50
[9] = oral, administered as individual cannabinoid, doses mg/kg: CBD 25, CBDA 50, CBDVA 7, THC 15, THCA 50
[10] = oral, administered in full-spectrum extract, doses mg/kg: CBD 25, CBDA 50, CBDVA 7, CBGA 7, THC 15, THCA 50
[11] = mouse plasma, oral, administered as individual cannabinoid, doses mg/kg: CBD 25, CBDA 50, CBDVA 7, CBGA 7, THC 15, THCA 50
[12] = BCRP MDCK cells, 10 µM cannabinoid
[13] = with elacridar 10 µM, BCRP MDCK cells, 10 µM cannabinoid in the presence of 10 µM elacridar
[14] = P-glycoprotein MDCK cells, 10 µM cannabinoid
[15] = BCRP MDCK cells, 10 µM cannabinoid, substrate threshold 1.5

| SMILES | AUC [1, 7] [ng·h/mL] | AUC [1, 8] [ng·h/mL] | half-life [1, 9] [h] | half-life [1, 10] [h] | tmax [1, 11] [h] | tmax [1, 8] [h] | Detection in plasma following oral administration of the full-spectrum extract ([1]; mouse plasma) | Papp B→A at 240 min, 10 µM [2] [×10⁻⁶ cm/s] | efflux ratio at 240 min, 10 µM [2] | P (A > B) (wildtype MDCK cells) | P (A > B) (BCRP [3]; [12]) | P (B > A) (BCRP [3]; [12]) | BCRP substrate status (BCRP [3]) | efflux ratio at 240 min, 10 µM (BCRP [3]; [13]) | P (A > B) (P-glycoprotein; [14]) | P (B > A) (P-glycoprotein; [14]) | P-glycoprotein substrate status (P-glycoprotein) | other results |
| --- | --- | --- | --- | --- | --- | --- | --- | --- | --- | --- | --- | --- | --- | --- | --- | --- | --- | --- |
| C=C(C)[C@@H]1CCC(C)=C[C@H]1c1c(O)cc(CCCCC)c(C(=O)O)c1O [CBDA, cannabidiolic acid] | 27300 | 380000 | 3.3 | 5.17 | 1.5 | ≤ 1 | detected | 370 ± 90 | 1.2 ± 0.3 | 31 ± 8 × 10^−5 cm/s | 38 ± 11 × 10^−5 cm/s | 162 ± 24 × 10^−5 cm/s | BCRP substrates | 0.4 ± 0.4 | 24 ± 7 × 10^−5 cm/s | 38 ± 4 × 10^−5 cm/s | not P-glycoprotein substrates | Cmax ([1]; mouse plasma, oral, administered as individual cannabinoid, doses mg/kg: CBDA 50, CBDVA 7, CBGA 7): 6000 ± 1000 ng/mL; Cmax ([1]; mouse plasma, oral, administered in full-spectrum extract, doses mg/kg: CBDA 50, CBDVA 7, CBGA 7): 47000 ± 4000 ng/mL; Total plasma exposure (AUC) in full-spectrum extract relative to individual compound, fold higher ([1]; mouse plasma, oral, 50 mg/kg, equivalent doses): ~14 × and 14 ×; r (transport efflux ratio) (P-glycoprotein; P-glycoprotein MDCK cells, 10 µM cannabinoid, substrate threshold 2.5): 1.5 ± 0.3; efflux ratio at 240 min, 10 µM (P-glycoprotein; human, MDCK-MDR1, r (transport efflux ratio), P-glycoprotein MDCK cells, 10 µM cannabinoid, substrate threshold 2.5): < 2.5; Serum CBDA concentrations relative to serum CBD concentrations [4]: 20–30 times |
| C=C(C)[C@@H]1CCC(C)=C[C@H]1c1c(O)cc(CCCCC)cc1O [CBD, cannabidiol] | 1730 | 717 | 3.62 | 8.07 | 1.5 | ≤ 1 | detected | 250 ± 30 | 0.6 ± 0.2 | 41 ± 5 × 10^−5 cm/s | 52 ± 8 × 10^−5 cm/s | 86 ± 20 × 10^−5 cm/s | BCRP substrates | 1 ± 0.2 | 25 ± 7 × 10^−5 cm/s | 15 ± 3 × 10^−5 cm/s | not P-glycoprotein substrates | Cmax ([1]; 25 mg/kg, mouse plasma, oral, administered as individual cannabinoid, doses mg/kg: CBD 25, THC 15, THCA 50): 304 ± 28 ng/mL; Cmax ([1]; 25 mg/kg, mouse plasma, oral, administered in full-spectrum extract, doses mg/kg: CBD 25, THC 15, THCA 50): 60 ± 6 ng/mL; Total plasma exposure in full-spectrum extract relative to individual compound, fold lower ([1]; mouse plasma, oral, equivalent doses): 2–4 ×; r (transport efflux ratio) (BCRP [3]; [15]): 1.6 ± 0.3; efflux ratio at 240 min, 10 µM (BCRP [3]; [15]): > 1.5; Effect on BCRP-mediated transport of CBDA (BCRP [5]; BCRP MDCK cells, compared to vehicle): Neither CBD nor CBDVA affected CBDA transport via BCRP; r (transport efflux ratio) of CBDA in the presence of inhibitor (BCRP [5]; human, 240 min): 5.9 ± 0.1; Bcrp1 substrate status (Bcrp1): not a substrate of mouse Bcrp1; Effect on BCRP-mediated transport of prazosin (BCRP [6]): identified as an inhibitor of BCRP |
